{"source": "ChEMBL document CHEMBL4507283", "about": "“Data for DCP probe BI-1935” (2021)", "key": {"[1]": {"target": "Sodium-dependent serotonin transporter (Homo sapiens) (UniProt P31645)", "settings": "Compound concentration 10.0 uM; call rule not given here"}, "[2]": {"target": "D(2) dopamine receptor (Homo sapiens) (UniProt P14416)", "settings": "Compound concentration 10.0 uM"}, "[3]": {"target": "Muscarinic acetylcholine receptor M4 (Homo sapiens) (UniProt P08173)", "settings": "Compound concentration 10.0 uM"}, "[4]": {"target": "Sodium-dependent noradrenaline transporter (Homo sapiens) (UniProt P23975)", "settings": "Compound concentration 10.0 uM"}, "[5]": {"target": "5-hydroxytryptamine receptor 7 (Homo sapiens) (UniProt P34969)", "settings": "Compound concentration 10.0 uM"}, "Rattus norvegicus": {"species": "Rattus norvegicus", "settings": "Compound concentration 10.0 uM"}, "[6]": {"target": "Alpha-2A adrenergic receptor (Homo sapiens) (UniProt P08913)", "settings": "Compound concentration 10.0 uM"}, "[7]": {"target": "Beta-2 adrenergic receptor (Homo sapiens) (UniProt P07550)", "settings": "Compound concentration 10.0 uM"}, "[8]": {"target": "5-hydroxytryptamine receptor 2A (Homo sapiens) (UniProt P28223)", "settings": "Compound concentration 10.0 uM"}, "[9]": {"target": "Histamine H4 receptor (Homo sapiens) (UniProt Q9H3N8)", "sequence (Q9H3N8 whole entry)": "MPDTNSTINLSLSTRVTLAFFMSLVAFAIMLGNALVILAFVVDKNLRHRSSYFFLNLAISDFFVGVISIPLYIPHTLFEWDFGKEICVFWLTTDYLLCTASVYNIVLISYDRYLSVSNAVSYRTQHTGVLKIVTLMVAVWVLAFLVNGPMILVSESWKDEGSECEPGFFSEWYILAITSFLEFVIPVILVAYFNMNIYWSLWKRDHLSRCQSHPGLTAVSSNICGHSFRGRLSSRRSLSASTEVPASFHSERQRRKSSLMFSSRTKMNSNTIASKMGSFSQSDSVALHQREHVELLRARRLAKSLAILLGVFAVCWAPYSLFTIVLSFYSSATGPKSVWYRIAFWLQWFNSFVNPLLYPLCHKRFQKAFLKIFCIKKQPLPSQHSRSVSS", "settings": "Compound concentration 10.0 uM"}, "[10]": {"target": "T1, 5-hydroxytryptamine receptor 3A (Homo sapiens) (UniProt P46098)", "T1 sequence (whole entry)": "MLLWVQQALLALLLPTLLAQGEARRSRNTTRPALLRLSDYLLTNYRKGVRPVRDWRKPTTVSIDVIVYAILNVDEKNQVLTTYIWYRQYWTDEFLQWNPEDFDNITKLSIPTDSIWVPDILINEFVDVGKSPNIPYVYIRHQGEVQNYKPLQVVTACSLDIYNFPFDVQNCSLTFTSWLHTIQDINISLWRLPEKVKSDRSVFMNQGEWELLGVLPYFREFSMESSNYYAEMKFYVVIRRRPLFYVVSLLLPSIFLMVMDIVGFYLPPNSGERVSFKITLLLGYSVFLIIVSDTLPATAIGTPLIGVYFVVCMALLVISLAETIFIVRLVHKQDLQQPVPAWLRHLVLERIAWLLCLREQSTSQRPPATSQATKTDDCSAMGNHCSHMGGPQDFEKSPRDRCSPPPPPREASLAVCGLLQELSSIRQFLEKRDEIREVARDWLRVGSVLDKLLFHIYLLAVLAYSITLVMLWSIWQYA", "settings": "Compound concentration 10.0 uM"}, "[11]": {"target": "Alpha-1A adrenergic receptor (Homo sapiens) (UniProt P35348)", "settings": "Compound concentration 10.0 uM"}, "[12]": {"target": "Sigma intracellular receptor 2 (Homo sapiens) (UniProt Q5BJF2)", "settings": "Compound concentration 10.0 uM"}, "[13]": {"target": "Muscarinic acetylcholine receptor M5 (Homo sapiens) (UniProt P08912)", "settings": "Compound concentration 10.0 uM"}, "[14]": {"target": "5-hydroxytryptamine receptor 2B (Homo sapiens) (UniProt P41595)", "settings": "Compound concentration 10.0 uM"}, "[15]": {"target": "Alpha-2C adrenergic receptor (Homo sapiens) (UniProt P18825)", "settings": "Compound concentration 10.0 uM"}, "[16]": {"target": "D(3) dopamine receptor (Homo sapiens) (UniProt P35462)", "sequence (P35462 whole entry)": "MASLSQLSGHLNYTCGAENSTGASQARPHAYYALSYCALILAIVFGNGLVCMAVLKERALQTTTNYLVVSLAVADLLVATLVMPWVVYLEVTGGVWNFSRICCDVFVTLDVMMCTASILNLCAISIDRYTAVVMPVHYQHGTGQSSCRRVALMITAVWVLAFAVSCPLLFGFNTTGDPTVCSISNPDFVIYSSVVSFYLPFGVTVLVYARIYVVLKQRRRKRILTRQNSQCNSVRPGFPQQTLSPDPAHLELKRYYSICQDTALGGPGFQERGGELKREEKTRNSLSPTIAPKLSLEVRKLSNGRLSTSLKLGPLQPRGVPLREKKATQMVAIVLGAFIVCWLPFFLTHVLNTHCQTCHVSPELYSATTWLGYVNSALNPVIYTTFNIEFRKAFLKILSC", "settings": "Compound concentration 10.0 uM"}, "[17]": {"target": "Beta-1 adrenergic receptor (Homo sapiens) (UniProt P08588)", "settings": "Compound concentration 10.0 uM"}, "[18]": {"target": "T2, Sodium-dependent dopamine transporter (Homo sapiens, UniProt Q01959)", "T2 sequence (Q01959 whole entry)": "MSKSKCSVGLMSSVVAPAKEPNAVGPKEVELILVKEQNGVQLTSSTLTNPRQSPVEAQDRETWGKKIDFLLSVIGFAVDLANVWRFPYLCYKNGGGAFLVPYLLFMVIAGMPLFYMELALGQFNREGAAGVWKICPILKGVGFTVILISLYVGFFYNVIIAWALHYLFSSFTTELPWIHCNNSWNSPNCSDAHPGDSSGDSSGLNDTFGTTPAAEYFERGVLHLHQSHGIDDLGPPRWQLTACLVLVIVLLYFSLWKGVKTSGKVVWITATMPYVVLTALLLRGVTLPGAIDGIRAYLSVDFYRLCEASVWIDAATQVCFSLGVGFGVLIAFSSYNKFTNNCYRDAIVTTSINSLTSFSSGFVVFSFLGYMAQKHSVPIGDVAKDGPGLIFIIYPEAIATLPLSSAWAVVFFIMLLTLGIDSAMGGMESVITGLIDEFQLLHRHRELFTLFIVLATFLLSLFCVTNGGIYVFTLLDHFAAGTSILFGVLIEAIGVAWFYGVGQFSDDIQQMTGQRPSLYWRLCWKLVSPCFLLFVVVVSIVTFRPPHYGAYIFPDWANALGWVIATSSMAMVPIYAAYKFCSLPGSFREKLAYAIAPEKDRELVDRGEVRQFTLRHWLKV", "assay": "GPCRScan assay: inhibition of DAT", "design": "radioligand conc. used [nm] 3.6 – 16.0, parental cells stable HEK"}, "[19]": {"target": "Muscarinic acetylcholine receptor M1 (Homo sapiens) (UniProt P11229)", "sequence (P11229 whole entry)": "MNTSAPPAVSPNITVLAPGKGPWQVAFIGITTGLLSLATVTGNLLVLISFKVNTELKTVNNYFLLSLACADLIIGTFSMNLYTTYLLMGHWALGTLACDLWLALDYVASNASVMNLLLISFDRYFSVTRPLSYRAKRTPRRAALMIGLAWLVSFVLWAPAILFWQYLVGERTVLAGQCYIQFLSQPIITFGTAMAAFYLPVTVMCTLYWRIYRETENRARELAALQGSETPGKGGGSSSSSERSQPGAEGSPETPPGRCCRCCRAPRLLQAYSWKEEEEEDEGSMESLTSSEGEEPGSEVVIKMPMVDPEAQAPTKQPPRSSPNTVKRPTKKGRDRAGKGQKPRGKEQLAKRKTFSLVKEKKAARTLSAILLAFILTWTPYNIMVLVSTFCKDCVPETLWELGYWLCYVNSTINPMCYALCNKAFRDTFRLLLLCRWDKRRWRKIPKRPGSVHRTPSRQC", "settings": "Compound concentration 10.0 uM"}, "[20]": {"target": "Kappa-type opioid receptor (Homo sapiens) (UniProt P41145)", "settings": "Compound concentration 10.0 uM"}, "[21]": {"target": "D(1A) dopamine receptor (Homo sapiens) (UniProt P21728)", "sequence (P21728 whole entry)": "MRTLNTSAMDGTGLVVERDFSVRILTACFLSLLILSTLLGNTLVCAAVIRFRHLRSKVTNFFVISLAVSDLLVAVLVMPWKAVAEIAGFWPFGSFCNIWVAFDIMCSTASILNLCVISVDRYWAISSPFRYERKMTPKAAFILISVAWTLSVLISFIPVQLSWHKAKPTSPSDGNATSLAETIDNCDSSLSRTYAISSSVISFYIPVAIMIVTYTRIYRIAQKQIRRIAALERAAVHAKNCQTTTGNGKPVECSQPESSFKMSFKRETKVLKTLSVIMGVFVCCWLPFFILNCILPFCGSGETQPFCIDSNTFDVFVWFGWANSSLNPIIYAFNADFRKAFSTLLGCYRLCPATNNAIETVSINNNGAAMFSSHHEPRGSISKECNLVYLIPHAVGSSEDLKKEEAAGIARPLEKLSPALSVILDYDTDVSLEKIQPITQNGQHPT", "settings": "Compound concentration 10.0 uM"}, "[22]": {"target": "Histamine H1 receptor (Homo sapiens) (UniProt P35367)", "settings": "Compound concentration 10.0 uM"}, "[23]": {"target": "5-hydroxytryptamine receptor 1B (Homo sapiens) (UniProt P28222)", "settings": "Compound concentration 10.0 uM"}, "[24]": {"target": "Muscarinic acetylcholine receptor M3 (Homo sapiens) (UniProt P20309)", "settings": "Compound concentration 10.0 uM"}, "[25]": {"target": "Mu-type opioid receptor (Homo sapiens) (UniProt P35372)", "sequence (P35372 whole entry)": "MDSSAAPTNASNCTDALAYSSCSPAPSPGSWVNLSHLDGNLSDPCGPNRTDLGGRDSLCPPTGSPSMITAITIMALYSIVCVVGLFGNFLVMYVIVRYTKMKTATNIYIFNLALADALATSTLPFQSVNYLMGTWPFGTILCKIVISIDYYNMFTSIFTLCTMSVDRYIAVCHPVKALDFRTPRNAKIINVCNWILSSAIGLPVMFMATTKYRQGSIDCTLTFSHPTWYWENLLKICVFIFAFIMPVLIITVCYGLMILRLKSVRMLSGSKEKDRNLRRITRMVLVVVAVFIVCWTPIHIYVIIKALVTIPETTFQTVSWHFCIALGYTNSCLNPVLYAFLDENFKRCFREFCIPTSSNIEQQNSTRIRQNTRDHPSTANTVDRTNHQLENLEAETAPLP", "settings": "Compound concentration 10.0 uM"}, "[26]": {"target": "T3, Bifunctional epoxide hydrolase 2 (Homo sapiens, UniProt P34913)", "T3 sequence (P34913 whole entry)": "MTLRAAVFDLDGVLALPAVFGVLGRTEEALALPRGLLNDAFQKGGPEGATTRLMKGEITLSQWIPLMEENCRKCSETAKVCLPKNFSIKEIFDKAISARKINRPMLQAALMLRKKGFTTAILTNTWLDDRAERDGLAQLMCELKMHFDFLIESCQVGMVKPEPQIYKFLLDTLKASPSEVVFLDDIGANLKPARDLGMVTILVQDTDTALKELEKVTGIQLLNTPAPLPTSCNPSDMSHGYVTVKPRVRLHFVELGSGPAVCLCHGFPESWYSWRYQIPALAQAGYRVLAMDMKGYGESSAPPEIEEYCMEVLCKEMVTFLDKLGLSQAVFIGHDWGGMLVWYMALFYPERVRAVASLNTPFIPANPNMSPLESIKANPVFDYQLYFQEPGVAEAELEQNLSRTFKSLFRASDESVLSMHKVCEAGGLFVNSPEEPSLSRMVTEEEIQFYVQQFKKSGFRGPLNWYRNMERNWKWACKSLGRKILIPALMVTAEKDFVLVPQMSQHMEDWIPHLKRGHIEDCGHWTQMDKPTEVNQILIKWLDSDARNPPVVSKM", "assay": "Human soluble epoxide hydrolase inhibition"}, "[27]": {"target": "5-hydroxytryptamine receptor 5A (Homo sapiens) (UniProt P47898)", "settings": "Compound concentration 10.0 uM"}, "[28]": {"target": "5-hydroxytryptamine receptor 1A (Homo sapiens) (UniProt P08908)", "settings": "Compound concentration 10.0 uM"}, "[29]": {"target": "Beta-3 adrenergic receptor (Homo sapiens) (UniProt P13945)", "settings": "Compound concentration 10.0 uM"}, "[30]": {"target": "Alpha-1D adrenergic receptor (Homo sapiens) (UniProt P25100)", "sequence (P25100 whole entry)": "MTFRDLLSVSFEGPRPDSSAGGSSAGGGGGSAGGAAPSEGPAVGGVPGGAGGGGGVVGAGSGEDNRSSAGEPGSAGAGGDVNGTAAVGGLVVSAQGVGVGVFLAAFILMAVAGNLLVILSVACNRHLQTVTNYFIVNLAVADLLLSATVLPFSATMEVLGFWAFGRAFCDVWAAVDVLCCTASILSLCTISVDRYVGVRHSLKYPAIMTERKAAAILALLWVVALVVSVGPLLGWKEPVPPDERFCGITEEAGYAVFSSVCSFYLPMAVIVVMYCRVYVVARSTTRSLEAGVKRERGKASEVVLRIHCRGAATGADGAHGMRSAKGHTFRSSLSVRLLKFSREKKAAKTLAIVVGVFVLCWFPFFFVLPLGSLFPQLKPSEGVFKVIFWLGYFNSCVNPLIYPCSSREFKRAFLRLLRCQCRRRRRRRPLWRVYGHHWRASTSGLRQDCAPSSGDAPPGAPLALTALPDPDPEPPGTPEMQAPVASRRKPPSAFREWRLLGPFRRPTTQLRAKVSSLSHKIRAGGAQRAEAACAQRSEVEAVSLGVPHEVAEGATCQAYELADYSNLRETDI", "settings": "Compound concentration 10.0 uM"}, "[31]": {"target": "Alpha-1B adrenergic receptor (Homo sapiens) (UniProt P35368)", "settings": "Compound concentration 10.0 uM"}, "[32]": {"target": "Muscarinic acetylcholine receptor M2 (Homo sapiens) (UniProt P08172)", "sequence (P08172 whole entry)": "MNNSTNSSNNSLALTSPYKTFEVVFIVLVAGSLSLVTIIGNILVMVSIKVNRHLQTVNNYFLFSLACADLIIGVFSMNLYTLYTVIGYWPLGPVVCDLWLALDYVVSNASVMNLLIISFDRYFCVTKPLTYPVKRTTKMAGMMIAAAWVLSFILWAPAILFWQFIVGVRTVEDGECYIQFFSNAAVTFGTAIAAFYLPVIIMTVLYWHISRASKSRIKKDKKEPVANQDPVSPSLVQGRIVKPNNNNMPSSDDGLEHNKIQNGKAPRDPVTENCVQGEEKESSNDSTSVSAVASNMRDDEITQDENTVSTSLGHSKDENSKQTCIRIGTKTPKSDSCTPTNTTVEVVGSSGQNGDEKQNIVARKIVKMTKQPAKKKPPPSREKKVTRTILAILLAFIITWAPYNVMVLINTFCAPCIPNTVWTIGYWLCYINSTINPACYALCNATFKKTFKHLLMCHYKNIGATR", "settings": "Compound concentration 10.0 uM"}, "[33]": {"target": "Histamine H2 receptor (Homo sapiens) (UniProt P25021)", "sequence (P25021 whole entry)": "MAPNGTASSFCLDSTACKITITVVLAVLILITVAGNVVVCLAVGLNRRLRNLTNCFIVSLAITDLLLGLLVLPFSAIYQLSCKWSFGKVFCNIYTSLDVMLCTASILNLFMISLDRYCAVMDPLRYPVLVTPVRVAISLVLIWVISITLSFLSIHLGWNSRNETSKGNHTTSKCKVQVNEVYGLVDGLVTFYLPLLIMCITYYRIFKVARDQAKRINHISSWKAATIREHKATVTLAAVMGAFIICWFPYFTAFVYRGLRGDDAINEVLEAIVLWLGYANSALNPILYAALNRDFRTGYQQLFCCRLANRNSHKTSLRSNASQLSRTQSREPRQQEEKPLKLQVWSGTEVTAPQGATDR", "settings": "Compound concentration 10.0 uM"}, "[34]": {"target": "T2, Sodium-dependent dopamine transporter", "settings": "Compound concentration 10.0 uM"}, "[35]": {"target": "Alpha-2B adrenergic receptor (Homo sapiens) (UniProt P18089)", "sequence (P18089 whole entry)": "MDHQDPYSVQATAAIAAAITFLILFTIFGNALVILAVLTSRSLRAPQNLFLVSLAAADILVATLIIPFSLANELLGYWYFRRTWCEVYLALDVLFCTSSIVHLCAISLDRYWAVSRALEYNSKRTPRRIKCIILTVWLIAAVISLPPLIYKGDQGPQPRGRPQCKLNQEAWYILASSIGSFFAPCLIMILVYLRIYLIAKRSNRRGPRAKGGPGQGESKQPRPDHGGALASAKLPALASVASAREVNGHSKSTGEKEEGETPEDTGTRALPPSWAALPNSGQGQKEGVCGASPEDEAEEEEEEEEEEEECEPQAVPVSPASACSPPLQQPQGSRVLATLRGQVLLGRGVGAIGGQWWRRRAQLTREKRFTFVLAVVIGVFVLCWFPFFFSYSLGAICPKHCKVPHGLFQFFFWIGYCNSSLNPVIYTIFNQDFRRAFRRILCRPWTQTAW", "settings": "Compound concentration 10.0 uM"}, "[36]": {"target": "5-hydroxytryptamine receptor 1E (Homo sapiens) (UniProt P28566)", "sequence (P28566 whole entry)": "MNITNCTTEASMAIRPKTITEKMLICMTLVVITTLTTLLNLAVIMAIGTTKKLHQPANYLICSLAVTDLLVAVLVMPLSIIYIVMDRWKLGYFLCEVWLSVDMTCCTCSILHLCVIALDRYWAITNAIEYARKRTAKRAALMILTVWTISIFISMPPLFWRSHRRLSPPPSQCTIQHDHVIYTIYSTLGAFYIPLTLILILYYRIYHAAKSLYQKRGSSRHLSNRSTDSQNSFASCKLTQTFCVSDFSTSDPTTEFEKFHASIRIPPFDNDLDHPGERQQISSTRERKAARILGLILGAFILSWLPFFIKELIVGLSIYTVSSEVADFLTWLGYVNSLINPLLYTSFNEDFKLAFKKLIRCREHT", "settings": "Compound concentration 10.0 uM"}, "[37]": {"target": "GABA-A receptor; anion channel (Rattus norvegicus) (UniProt O09028+P15431+P18506+P18508+P19969+P20236+P23574+P23576+P28471+P28473+P30191+P62813+P63079+P63138+Q91ZM7+Q9ES14)", "settings": "Compound concentration 10.0 uM"}, "[38]": {"target": "5-hydroxytryptamine receptor 1D (Homo sapiens) (UniProt P28221)", "settings": "Compound concentration 10.0 uM"}, "[39]": {"target": "Delta-type opioid receptor (Homo sapiens) (UniProt P41143)", "settings": "Compound concentration 10.0 uM"}, "[40]": {"target": "Histamine H3 receptor (Homo sapiens) (UniProt Q9Y5N1)", "settings": "Compound concentration 10.0 uM"}}, "data": [{"smiles": "O=C(Nc1ccc(-n2nc(-c3cccnc3)cc2C(F)(F)F)cn1)c1ccc(-c2ccccc2)c(F)c1", "note": "[BI 2049]", "values": [{"measurement": "inhibition", "setting": "[1]", "result": 9.16, "unit": "%"}, {"measurement": "inhibition", "setting": "[2]", "result": -9.24, "unit": "%"}, {"measurement": "inhibition", "setting": "[3]", "result": 0.8, "unit": "%"}, {"measurement": "inhibition", "setting": "[4]", "result": -9.35, "unit": "%"}, {"measurement": "inhibition", "setting": "[5]", "result": 6.21, "unit": "%"}, {"measurement": "inhibition", "setting": "Rattus norvegicus", "result": 15, "unit": "%"}, {"measurement": "inhibition", "setting": "[6]", "result": 8.3, "unit": "%"}, {"measurement": "inhibition", "setting": "[7]", "result": 5.14, "unit": "%"}, {"measurement": "inhibition", "setting": "[8]", "result": -1.62, "unit": "%"}, {"measurement": "inhibition", "setting": "[9]", "result": -9.32, "unit": "%"}, {"measurement": "inhibition", "setting": "[10]", "result": -8.89, "unit": "%"}, {"measurement": "inhibition", "setting": "[11]", "result": 1.9, "unit": "%"}, {"measurement": "inhibition", "setting": "[12]", "result": 30.1, "unit": "%"}, {"measurement": "inhibition", "setting": "[13]", "result": 0.37, "unit": "%"}, {"measurement": "inhibition", "setting": "[14]", "result": 9.91, "unit": "%"}, {"measurement": "inhibition", "setting": "[15]", "result": 6.33, "unit": "%"}, {"measurement": "inhibition", "setting": "[16]", "result": 8.38, "unit": "%"}, {"measurement": "inhibition", "setting": "[17]", "result": 0.23, "unit": "%"}, {"measurement": "pKi", "setting": "[18]", "result": "< 5"}, {"measurement": "Ki", "setting": "[18]; read-out: Ki", "result": "> 10", "unit": "µM"}, {"measurement": "inhibition", "setting": "[19]", "result": 25.5, "unit": "%"}, {"measurement": "inhibition", "setting": "[20]", "result": 13.8, "unit": "%"}, {"measurement": "inhibition", "setting": "[21]", "result": 4.32, "unit": "%"}, {"measurement": "inhibition", "setting": "[22]", "result": 3.07, "unit": "%"}, {"measurement": "inhibition", "setting": "[23]", "result": -0.85, "unit": "%"}, {"measurement": "inhibition", "setting": "[24]", "result": 3.71, "unit": "%"}, {"measurement": "inhibition", "setting": "[25]", "result": 7.17, "unit": "%"}, {"measurement": "IC50", "setting": "[26]", "result": "> 3 µM (not active)"}, {"measurement": "inhibition", "setting": "[27]", "result": -2.92, "unit": "%"}, {"measurement": "inhibition", "setting": "[28]", "result": -3.06, "unit": "%"}, {"measurement": "inhibition", "setting": "[29]", "result": -0.78, "unit": "%"}, {"measurement": "inhibition", "setting": "[30]", "result": 18.3, "unit": "%"}, {"measurement": "inhibition", "setting": "[31]", "result": -3.49, "unit": "%"}, {"measurement": "inhibition", "setting": "[32]", "result": 9.94, "unit": "%"}, {"measurement": "inhibition", "setting": "[33]", "result": -5.62, "unit": "%"}, {"measurement": "inhibition", "setting": "[34]", "result": 68.2, "unit": "%"}, {"measurement": "inhibition", "setting": "[35]", "result": 1.26, "unit": "%"}, {"measurement": "inhibition", "setting": "[36]", "result": -4.45, "unit": "%"}, {"measurement": "inhibition", "setting": "[37]", "result": 16.1, "unit": "%"}, {"measurement": "inhibition", "setting": "[38]", "result": -9.83, "unit": "%"}, {"measurement": "inhibition", "setting": "[39]", "result": 3.77, "unit": "%"}, {"measurement": "inhibition", "setting": "[40]", "result": -1.54, "unit": "%"}]}]}
